For data set [1], the system named is Pgp transporter homologue (Mdr65). Further details: method as in Mayer et al. [2009]. The following applies: Drosophila melanogaster; ref Mayer et al. [2009]; cited from earlier work.
The conditions of data set [2]: locust hemolymph; injection of 20 μL of 20 μmol/kg dose; samples at 0.08, 0.25, 0.75, 2 and 6 h; n = 6.
Procedure: Clearance of test compounds from the hemolymph was measured by repeated sampling of 10 μL hemolymph from the individual locust at 5, 15, 45, 120, and 360 min after intrahemolymph administration (20 μL) of the test compound solution (20 μmol/kg body weight). The 10 μL hemolymph samples were added to microcentrifuge tubes (Eppendorf) containing 40 μL ice-cold insect buffer.
The next data set deals with Pgp efflux transport. The following applies: 3 μmol/L, 5 min, without verapamil; Fig. 5; n = 3.
The subject of data set [3] is Pgp transporter. The following applies: locust brain barrier model; ref Nielsen et al. [2011]; cited from earlier work.
Data set [4] relates to Pgp transporter. The following applies: locust ex vivo and mouse Pgp KO/WT; ref Andersson et al. [2013]; Doran et al. [2005]; cited from earlier work.
Data set [5] relates to Pgp transporter. The following applies: 3 and 10 μmol/L exposure, 5 min, with and without verapamil; Fig. 4; n = 3.
Data set [6] has as its system Pgp transporter. The data set can be described thus: In vivo locust brain uptake (brain:hemolymph ratio) with or without co-injected Pgp inhibitor CsA. The following applies: 15 min after injection, data not shown.
The subject of data set [7] is locust brain barrier. The following applies: for Concentration-dependent ex vivo brain uptake profile: exposure 3, 10, 30 and 100 μmol/L for 5 min, Fig. 3, n = 3.
Data set [8] has as its system locust brain barrier. More on the design: method as in Andersson et al. [2013]. The following applies: locust ex vivo model; ref Andersson et al. [2013]; cited from earlier work.

SMILES strings stand for the structures.

With `COC(=O)c1ccccc1-c1c2ccc(=N)cc-2oc2cc(N)ccc12` [Rho123, rhodamine 123], the “Dm brain concentration when co-injected with the Pgp inhibitor CsA” value in data set [1] is reported as “increases”.
As for `CC(C)NCC(O)COc1cccc2ccccc12` (stereo not drawn) [Propranolol, propranolol], the “Elimination (drug elimination constant calculated from C = Coe^−kt)” value in [2] was −0.98 ^1 h^−1.
On to `C=C[C@H]1C[N@@]2CC[C@H]1C[C@@H]2[C@@H](O)c1ccnc2ccc(OC)cc12` [Quinidine, quinidine], for which the “Ex vivo brain uptake when exposure temperature raised from 2°C to 30°C” value in the data set with Pgp efflux transport is “corresponding increase in quinidine uptake was not seen”. In the data set with Pgp transporter [3], the “Uptake into the locust brain with Pgp inhibitor verapamil” value is recorded as “significantly increased”.
As for `CN(C)CCCC1(c2ccc(F)cc2)OCc2cc(C#N)ccc21` (stereo not drawn) [citalopram], the “Pgp transporter efflux liability” value in the data set on Pgp transporter [4] is “affected by Pgp transporter efflux”.
For `CN(C)C(=O)C(CCN1CCC(O)(c2ccc(Cl)cc2)CC1)(c1ccccc1)c1ccccc1` [Loperamide, loperamide], the “Ex vivo brain uptake/concentration on co-exposure to verapamil” value with Pgp transporter [5] is given as “significantly increased”. The “Hemolymph concentration when injected alone or co-injected with CsA” value in the data set on Pgp transporter [6] was “no difference”. The “Concentration-dependent ex vivo brain uptake profile” value in the data set with locust brain barrier [7] is “increased more than linearly”.
In the case of `NC(=O)N1c2ccccc2C=Cc2ccccc21` [Cbz, carbamazepine], the “Ex vivo brain uptake when exposure temperature raised from 2°C to 30°C” value with Pgp efflux transport is on record as “markedly increased”. The “Ratio of permeabilities (dynamic range of the locust ex vivo model)” value with locust brain barrier [7] (Cbz (high permeability) versus atenolol (low permeability)) was about 64. Moreover, in the data set with locust brain barrier [7], the “Concentration-dependent ex vivo brain uptake profile” value is reported as “linear increase”.
As to `CC(NC(C)(C)C)C(=O)c1cccc(Cl)c1` (stereo not drawn) [Bupropion], the “Ex vivo brain uptake after increased exposure concentrations” value in the data set on locust brain barrier [8] is recorded as “more than dose-related”.
